Measurements reported in PubChem BioAssay (NCI).
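Protocol summary: plate cells (96-well), add compound at 5 concentrations, incubate 48 h, interpolate endpoints linearly. GI50 = concentration required for 50% inhibition of growth. At the TGI there is no net growth.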

How the values were obtained:
Experiment in all cases: growth of human tumour cells (NCI), 48 h
MDA-MB-435 = test system: MDA-MB-435
HCT-15 colon = test system: HCT-15 colon
PC-3 prostate = test system: PC-3 prostate
A549 NSCLC = test system: A549 NSCLC
RXF 393 renal = test system: RXF 393 renal
MDA-MB-231 breast = test system: MDA-MB-231 breast
SK-MEL-2 melanoma = test system: SK-MEL-2 melanoma
COLO 205 colon = test system: COLO 205 colon
TK-10 renal = test system: TK-10 renal
SF-539 CNS = test system: SF-539 CNS

SMILES	TGI (MDA-MB-435) [µM]	TGI (HCT-15 colon) [µM]	TGI (PC-3 prostate) [µM]	TGI (A549 NSCLC) [µM]	TGI (RXF 393 renal) [µM]	TGI (MDA-MB-231 breast) [µM]	TGI (SK-MEL-2 melanoma) [µM]	TGI (COLO 205 colon) [µM]	TGI (TK-10 renal) [µM]	TGI (SF-539 CNS) [µM]	GI50 (MDA-MB-435) [µM]	GI50 (SF-539 CNS) [µM]	GI50 (HCT-15 colon) [µM]	GI50 (PC-3 prostate) [µM]	GI50 (A549 NSCLC) [µM]	GI50 (MDA-MB-231 breast) [µM]	GI50 (SK-MEL-2 melanoma) [µM]	GI50 (COLO 205 colon) [µM]	GI50 (TK-10 renal) [µM]
O=C(O)CC[P+](c1ccccc1)(c1ccccc1)c1ccccc1	> 100	> 100	> 100	> 100	> 100	> 100	81.8	27.4	> 100										
CCOC(=O)C(NC(=O)CC)(Nc1ccc(S(=O)(=O)Nc2onc(C)c2C)cc1)C(F)(F)F (stereo unspecified)	> 100	> 100	> 100	> 100	> 100	> 100	> 100	> 100		> 100									
O=C(Sc1c(-c2ccccc2)c(=O)n(-c2ccccc2)c(=S)n1-c1ccccc1)c1cccs1	> 100	> 100	> 100	> 100			> 100	> 100	> 100										
N/C(=N\NS(=O)(=O)c1ccccc1)Oc1ccc(Br)cc1Br		> 100		> 100	> 100		> 100	> 100	> 100	> 100									
Cc1cccc2c1c1ccc3c(c1n2C)C(=O)C=CC3=O		10.5		37.7	7.86		33.6	6.26	7.19	15									
O=c1c2ccccc2nc(-c2ccccc2)n1NC(=S)Nc1ccc(Cl)cc1		> 100		> 100	> 100		> 100	> 100	> 100	> 100									
C#CCNC(=O)ON1C(=O)CCC1=O		> 100		> 100	> 100		> 100	> 100	> 100	> 100									
CO[C@H]1O[C@@H]2CO[C@@H](c3ccccc3)O[C@H]2[C@@H]2C/C=C\CCC[C@@]12O	52.9	76.5	77.1	> 100	33.2	68.4	34.2	33.6	> 100										
Cc1cc(NC(=O)C2C3C=CC(O3)C2C(=O)O)no1 (stereo unspecified)		37.4		> 100	31		> 100	31.5	> 100	54.9									
CNc1ccc2ncccc2c1[N+](=O)[O-]		> 100		> 100	> 100		> 100		> 100	> 100									
CCSCN(C)c1nc(N(C)C)nc(N(C)C)n1		> 100		> 100	61.3		> 100	> 100	> 100	> 100									
C=C[C@@]1(O)CCCC[C@@H]1CC(Sc1ccccc1)Sc1ccccc1	33	34.6	29.1	36.2	30.5	33.2	32.3	32.3	30.9										
COc1cccc(/C(Cl)=C(\C=O)c2cccc(OC)c2)c1		20.1		40.8	25.1		32.7	24.2	51.2	37.1									
COc1ccc(/C=C/C(=O)c2ccc(-n3cc(CN4CCN(c5cc6c(cc5F)c(=O)c(C(=O)O)cn6C5CC5)CC4)nn3)cc2)cc1OC	4.67	> 100	15.7	> 100		> 100	> 100	> 100	> 100	4.39	1.49	1.91	2.25	2.54	2.98	3.2	21.1	5.09	5.61
COC(=O)c1c(C)cccc1C1CN=NC12Cc1ccc(C)c(C)c1C2=O (stereo unspecified)	> 100	> 100		> 100	> 100	> 100			> 100	> 100									
CC(=O)OC1C2CCC3C(C)(O)C4CC(O)C(C)(C)C4(O)C(O)CC13CC2(C)O (stereo unspecified)		> 100	> 100	> 100		> 100	> 100	> 100	> 100	> 100									
CN(C)/C=N\c1ccnc(=O)[nH]1		> 100		> 100	> 100		> 100	> 100	> 100	> 100									
O=C1C[C@@H]2[C@@H](CCC23CC3)N1				> 100	> 100		> 100	> 100	> 100	> 100									
N#C/C(=C\c1ccc([N+](=O)[O-])s1)c1nc2cc(Cl)ccc2s1	3.19	0.622	3.42	> 100		1.21	3.7	4.06		2.79	1.65	1.21	0.246	1.31	3.12	0.297	1.25	1.55	
CN1CN(c2ccccc2)C2(CCN(CCCCCCF)CC2)C1=O	> 100	> 100	> 100	> 100	> 100	> 100		47.3	> 100	92.4									
O=S(=O)(c1ccc(-c2nnc(-c3ccc(F)cc3)o2)cc1)c1ccc(-c2nnc(-c3ccc(F)cc3)o2)cc1	> 100	> 100	> 100	> 100	77.7		> 100	> 100		> 100									
Cc1c(OCc2ccccc2)c(=O)ccn1CCc1c[nH]c2ccccc12	51.1	> 100	> 100	> 100		> 100	48.2	32.1	> 100	> 100									
